Assay results published in patent publication US4620871A (priority 1980, dated 1986).

Tests used:
Barley = assay: Inhibition of the decomposition of chlorophyll in barley leaf segments; details: 4 days dark
Description: (§1) The active agent to be tested was dissolved in distilled water to form a 200 ppm solution, and leaf segments of the plants under examination, weighing 200 mg, were floated on the surface of the solution for 4 days in the dark. Thereafter chlorphyll was extracted from the leaf segments with methanol.
(§2) To determine the starting state, chlorophyll was extracted with methanol from untreated leaf segments weighing 200 mg. In the control test the leaf segments, weighing 200 mg, were floated on the surface of distilled water for 4 days in the dark, and then chlorophyll was extracted from the leaf segments with methanol.
(§3) The chlorophyll concentration was determined by measuring the extinction of the extracts at 665 mμ.

Pinto beans = assay: Preservation of chlorophyll in Pinto beans (Example 17); format: in vivo; details: zeatin 20 ppm, kinetin/benzyladenine 30 ppm, others 200 ppm; for Extinction: 665 mμ, 200 mg fresh weight, 2 weeks
Description: Endogeneous and synthetic cytokinins were applied as comparative substances. Solutions with varying concentrations, but always more dilute than 10^-4 moles, were applied in the tests.
The tests were performed on Pinto beans. The plants were treated with an endogenous cytokinin (zeatine), synthetic cytokinins (kinetin, benzyladenine) or cytokinin-like compounds, respectively, and the chlorophyll content of the leaves was determined 2 weeks after the treatment by measuring the extinction of the extract of the leaves at 665 mμ.

Soybean [1] = assay: Total and protein nitrogen content of soybean (Example 39); format: in vivo
From the text: The effects of 1,4-dihydroxyphthalazine and salts thereof exerted on the total nitrogen content and protein nitrogen content of soybean were examined as described in Example 27. The plants were sprayed with the compositions according to the invention at the beginning of the flowering of the apical cluster.

Soybean [2] = assay: Inhibition of the decomposition of chlorophyll in soybean leaf segments; details: 4 days dark
Description: as §1, §2, §3

[3] = tested on: callus isolated from Datura innoxia Mill. roots; assay: Growth of callus isolated from Datura innoxia Mill. roots (Example 15); format: cell-based; details: for percentage growth promoting effect: control = 100, 30240 min
Bean [4] = assay: Stimulation of photosynthesis, 14CO2 incorporation, bean leaf discs (Example 20); details: foliar, 2 hours
Description: The specific radioactivities of the stock solutions were determined by liquid scintillation. In the control test untreated leaf discs were exposed to labelled carbon, dioxide, and the amount of carbon dioxide incorporated under such conditions was regarded as standard.

Alfalfa [5] = assay: Alfalfa field tests 1979, Boly (Example 26); format: in vivo
From the text: The effects of the compositions according to the invention exerted on the crop yield (green yield), crude protein content, protein nitrogen content and C/N ratio of alfalfa, observed under field conditions in the tests performed in 1979 at the Agricultural Combinate of Boly, Hungary, are listed in Table 17.

Tobacco callus = assay: Growth of tobacco callus vs kinetin (Example 14); format: cell-based; details: 2 ppm active agent
Description: An untreated culture medium served as control. Tobacco callus was grown on the treated and untreated culture media (incubation period: 3 weeks), and the daily growth, the increase in cell number and the frequency of mitosis were measured according to the method of Skoog.
The test described in Example 13 was repeated so that a culture medium containing 1 ppm of kinetin was used as control, and the compositions according to the invention were applied in amounts corresponding to 2 ppm of active agent.

Soybean [6] = assay: Stimulation of photosynthesis, 14CO2 incorporation, soybean leaf discs (Example 20); details: Glycine max, foliar, 2 hours
Description: The compositions according to the invention were diluted with distilled water to an active agent content of 200 ppm, and leaf discs of alfalfa, soybean, bean and maize, weighing 200 mg each, were floated on the surfaces of the resulting solutions for 2 hours. Thereafter the treated leaf discs were place into the assimilation chamber of an appropriate measuring apparatus, and a known amount of radioactive carbon dioxide gas (^14 CO2) was introduced into the assimilation chamber from a reservoir by means of a gas feeder for 0.5 hours under carefully controlled illumination conditions. Thereafter the leaf discs were frozen with liquid nitrogen, triturated with 50% by weight perchloric acid in a potter homogenizer, and stock solutions were prepared from the resulting mixtures. The specific radioactivities of the stock solutions were determined by liquid scintillation.
(§4) In the control test untreated leaf discs were exposed to labelled carbon, dioxide, and the amount of carbon dioxide incorporated under such conditions was regarded as standard.

Maize [7] = assay: Stimulation of photosynthesis, 14CO2 incorporation, maize leaf discs (Example 20); details: Zea mays, foliar, 2 hours
Description: The specific radioactivities of the stock solutions were determined by liquid scintillation.
as §4

Bean [8] = assay: Inhibition of the decomposition of chlorophyll in bean leaf segments; details: 4 days dark
Description: as §1, §2, §3

maize for silage = assay: Maize for silage field tests 1979, Boly (Example 28); format: in vivo
From the text: The effects of the cytokinin-like regulators on the crop yield, crude protein content and real protein content of maize for silage, observed under field conditions in the tests performed in 1979 at the Agricultural Combinate of Boly, Hungary, are listed in Table 20.

Maize [9] = assay: Inhibition of the decomposition of chlorophyll in maize; details: 200 ppm, 100 mg green plant, control 0.65
Description: (§5) Thereafter chlorphyll was extracted from the leaf segments with methanol. To determine the starting state, chlorophyll was extracted with methanol from untreated leaf segments weighing 200 mg. In the control test the leaf segments, weighing 200 mg, were floated on the surface of distilled water for 4 days in the dark, and then chlorophyll was extracted from the leaf segments with methanol. […] For alfalfa and maize the chlorphyll contents of 100 mg of green plant were examined.

bean leaves = assay: Incorporation of Gly-2-14C in bean leaves (Example 36); details: 18 hours
Description: The biological activities of cytokinin-like factors can be well characterized by measuring the intensity of the photosynthetic carbon dioxide fixation and the incorporation of labelled amino acids into the TCA-insoluble protein fraction. The intensity of photosynthetic carbon dioxide fixation was determined on maize leaves, utilizing ^14 CO2, whereas the incorporation of amino acids was examined on bean leaves, utilizing […]-^14 C.

Alfalfa [10] = assay: Inhibition of the decomposition of chlorophyll in alfalfa; details: 200 ppm, 100 mg green plant, control 0.78
Description: as §5

Molecule `N=C(N)N.N=C(N)N.Oc1nnc(O)c2ccccc12` [1,4-dihydroxyphthalazine diguanidine salt] has a Chlorophyll (Barley; 200 ppm, control 3.7) of 9.7 mg, an activation at 200 ppm (Barley; Hordeum vulgare, foliar, 96 h, read-out: Promotion) of 162% and an Extinction (Pinto beans) of 0.985. The Promotion (Pinto beans) was 46.8%, the Protein nitrogen content (Soybean [1]; control 1.9) was 3.9 % of dry substance and the Total nitrogen content (Soybean [1]; control 2.6) was 4.7 % of dry substance. For the same molecule, the “Protein nitrogen content, increase” value (Soybean [1]; in vivo) was 105.3%, the “Total nitrogen content, increase” value (Soybean [1]; in vivo) was 81.0% and the Chlorophyll (Soybean [2]; 200 ppm, control 3.5) was 5.4 mg. The activation at 200 ppm (Soybean [2]; Glycine max, foliar, 96 h, read-out: Promotion) was 54%, the Dry substance ([3]; with kinetin (2 ppm)) was 3.53% and the “Dry weight of the callus” value ([3]; with kinetin (2 ppm)) was 269.07 mg. For the same molecule, the “Fresh weight of the callus” value ([3]; with kinetin (2 ppm)) was 7.6110 g, the “Growth, dry weight” value ([3]; with kinetin (2 ppm)) was 24.46 and the “Growth, fresh weight” value ([3]; with kinetin (2 ppm)) was 24.37. The Speed of growth ([3]; with kinetin (2 ppm)) was 149.20 mg/day, the “percentage growth promoting effect” value ([3]; with kinetin) was 156% and the Dry substance ([3]; without kinetin) was 7.14%. The “Dry weight of the callus” value ([3]; without kinetin) was 66.11 mg, the “Fresh weight of the callus” value ([3]; without kinetin) was 0.9258 g and the “Growth, dry weight” value ([3]; without kinetin) was 5.25. The “Growth, fresh weight” value ([3]; without kinetin) was 2.08, the Speed of growth ([3]; without kinetin) was 12.77 mg/day and the “percentage growth promoting effect” value ([3]; without kinetin) was 648%. The activation at 200 ppm (Bean [4]) was 4%, the P2O5 content (Alfalfa [5]; control 8.3) was 10.3 % of dry substance and the Crude protein content (Alfalfa [5]; control 21.3) was 25.4 % of dry substance. For the same molecule, the Green yield (Alfalfa [5]; control 120) was 146 q/ha, the “Crude protein content, increase” value (Alfalfa [5]; in vivo) was 19.4% and the “Green yield, increase” value (Alfalfa [5]; in vivo) was 22.3%. For the same molecule, the “P2O5 content, increase” value (Alfalfa [5]; in vivo) was 24.6%, the “Dry weight of the callus” value (Tobacco callus; kinetin 1 ppm) was 170.92 mg and the Speed of growth (Tobacco callus; kinetin 1 ppm) was 98.23. For the same molecule, the activity at 2 ppm (Tobacco callus; Nicotiana tabacum, 504 h, kinetin 1 ppm = 100, read-out: Speed of growth, Index %) was 98.2%, the activation at 200 ppm (Soybean [6]) was 67% and the activation at 200 ppm (Maize [7]) was 12%. The Chlorophyll (Bean [8]; 200 ppm, control 4.2) was 6.5 mg, the activation at 200 ppm (Bean [8]; foliar, 96 h, read-out: Promotion) was 54% and the P2O5 content (maize for silage; control 7.5) was 9.5 % of dry substance. The Crude protein content (maize for silage; control 13.2) was 16.0 % of dry substance, the Green weight (maize for silage; control 310.2) was 361.3 q/ha and the “Crude protein content, increase” value (maize for silage; in vivo) was 21.3%. For the same molecule, the “Green weight, increase” value (maize for silage; in vivo) was 15.5% and the “P2O5 content, increase” value (maize for silage; in vivo) was 27.2%.

Molecule `CCC[n+]1c[nH]c2ccccc21.[Br-]` [N--(n-Propyl)-benzimidazolium bromide, N-(n-propyl)-benzimidazolium bromide] has an Extinction (Pinto beans) of 1.081, a Promotion (Pinto beans) of 61.2% and a Chlorophyll content (Maize [9]) of 0.82 mg. The Dry substance ([3]; with kinetin (2 ppm)) was 3.17%, the “Dry weight of the callus” value ([3]; with kinetin (2 ppm)) was 209.13 mg and the “Fresh weight of the callus” value ([3]; with kinetin (2 ppm)) was 6.5772 g. For the same molecule, the “Growth, dry weight” value ([3]; with kinetin (2 ppm)) was 18.78, the “Growth, fresh weight” value ([3]; with kinetin (2 ppm)) was 20.92 and the Speed of growth ([3]; with kinetin (2 ppm)) was 128.10 mg/day. The “percentage growth promoting effect” value ([3]; with kinetin) was 134%, the Dry substance ([3]; without kinetin) was 7.07% and the “Dry weight of the callus” value ([3]; without kinetin) was 43.29 mg. The “Fresh weight of the callus” value ([3]; without kinetin) was 0.6120 g, the “Growth, dry weight” value ([3]; without kinetin) was 3.09 and the “Growth, fresh weight” value ([3]; without kinetin) was 1.04. The Speed of growth ([3]; without kinetin) was 6.36 mg/day, the “percentage growth promoting effect” value ([3]; without kinetin) was 322% and the “Incorporation of Gly-2-14C” value (bean leaves; fresh weight, control 3.52) was 4.96 μCi/g. For the same molecule, the “Incorporation of Gly-2-14C, %” value (bean leaves; increase over control) was 41% and the Chlorophyll content (Alfalfa [10]) was 0.96 mg.
